Experimental data taken from PubChem BioAssay AID1259411 (Chemical Carcinogenesis Research Information System (CCRIS), 2018).
Activity calls are given as the source filed them. No rule for the calls is given here.

Test system: rodent carcinogenicity bioassays, tumor incidence
Assay: CCRIS carcinogenicity studies
Settings: Route: GAVAGE, Dose: 0, Dose: 0
In short: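 Archive of carcinogenicity, mutagenicity, tumor promotion and tumor inhibition results drawn from journals, NCI reports and other sources, expert-reviewed; covers 1985-2011 and is no longer updated.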

Measured: carcinogen call

CN1C(=O)C[C@@H](C(=O)N[C@@H](Cc2cnc[nH]2)C(=O)N2CCC[C@H]2C(N)=O)NC1=O
inactive: Species: MOUSE, Strain/Sex: CD-1/FEMALE, 5, 15, 50 MG/KG 1/D 7 D/WK FOR 104 WK (STUDY DURATION: 104 WK), 5, 15, 50 MG/KG 1/D 7 D/WK FOR 104 WK (STUDY DURATION: 104 WK) inactive; negative | Species: MOUSE, Strain/Sex: CD-1/MALE, 5, 15, 50 MG/KG 1/D 7 D/WK FOR 104 WK (STUDY DURATION: 104 WK), 5, 15, 50 MG/KG 1/D 7 D/WK FOR 104 WK (STUDY DURATION: 104 WK) inactive; negative | Species: RAT, Strain/Sex: STRAIN-CD/FEMALE, 20, 60, 200 MG/KG 1/D 7 D/WK FOR 94 WK (STUDY DURATION: 94 WK), 20, 60, 200 MG/KG 1/D 7 D/WK FOR 94 WK (STUDY DURATION: 94 WK) inactive; negative | Species: RAT, Strain/Sex: STRAIN-CD/MALE, 20, 60, 200 MG/KG 1/D 7 D/WK FOR 90 WK (STUDY DURATION: 90 WK), 20, 60, 200 MG/KG 1/D 7 D/WK FOR 90 WK (STUDY DURATION: 90 WK) inactive; negative
